Earlier results in the CATMoS acute toxicity set (Mansouri et al. 2021).
“And” between values parts separate entries of the source, which are not always exact repeats. Identical values can stand only once.

Assay: rat acute oral toxicity
Settings: in vivo

Structure (SMILES) | LD50
O=[N+]([O-])c1ccc(Oc2c(F)cc(Cl)cc2Cl)cc1 | 2890 mg/kg
C1CC2OC2CC1C1CO1 (stereo not drawn) | 2830 mg/kg
O=C(CCc1ccccc1)OC1=C(OC(=O)CCc2ccccc2)C(=O)OC1=O | 10000 mg/kg
O=C1CN(/N=C/c2ccc([N+](=O)[O-])o2)C(O)=N1 | 1490 mg/kg
C=CC(C)(O)CC (stereo not drawn) | 700 mg/kg
O=[N+]([O-])c1cc([N+](=O)[O-])c(Cl)c(S(=O)(=O)O)c1 | 1460 mg/kg
C=CCOc1ccccc1C(N)=O | 780 mg/kg
CCCCC(C)(C)O[Si](OC(C)(C)CCCC)(OC(C)(C)CCCC)OC(C)(C)CCCC | 60300 mg/kg
CN(C)CCC=C1c2ccccc2CCc2ccccc21 | 320 mg/kg
O=c1ncc2[nH]cnc2[nH]1 | 1040 mg/kg
NCCOC(=O)C=CC(=O)OCCN | 4920 mg/kg
CCCCC(CC)COP(=O)(O)OCC(CC)CCCC (stereo not drawn) | 4940 mg/kg
c1ccc2[nH]c(SN3CCCCC3)nc2c1 | 853 mg/kg
CCOCOC(=O)c1ccccc1Nc1c(Cl)ccc(C)c1Cl | 307 mg/kg
Cn1c(-c2ccccc2)cc(-c2ccccc2)[n+]1C | 206 mg/kg and 470 mg/kg
CC(C)(C)NCC(O)COc1ccccc1OCC1CCCO1 (stereo not drawn) | 1090 mg/kg
CCN(CC)CCOc1ccc(C2=C(c3ccccc3)CCc3cc(OC)ccc32)cc1 | 547 mg/kg
COC(=O)CC(=O)OC | 5330 mg/kg
CCCC(=O)Nc1c(I)cc(I)c(CC(CC)C(=O)O)c1I (stereo not drawn) | 6500 mg/kg
N#Cc1ccc2c(c1)N(CCCN1CCC(O)CC1)c1ccccc1S2 | 395 mg/kg
CN(c1ccc(Cl)cc1Br)c1c([N+](=O)[O-])cc([N+](=O)[O-])cc1C(F)(F)F | 4.5 mg/kg
CCC(C)OC(C[n+]1ccccc1)c1ccccc1 (stereo not drawn) | 250 mg/kg
CCOC(C1=NCC(C)(C)N1)c1ccc(Cl)c(Cl)c1 (stereo not drawn) | 110 mg/kg
O=C(O)CCCCCCCCCl | 3000 mg/kg
CCCC(CCC)C(=O)O | 670 mg/kg

Structure (SMILES) | LD50
CC(C)(Oc1ccc(Cl)cc1)C(=O)OCc1cccc(CO)n1 | 1250 mg/kg
O=[N+]([O-])c1cc([N+](=O)[O-])c(Nc2cc(C(F)(F)F)ccc2Cl)c(C(F)(F)F)c1 | 94 mg/kg
O=c1cc(O)c1=O | 41 mg/kg
NC(=O)C(=O)O | 21100 mg/kg
Oc1ccc(NCc2ccccc2)cc1 | 400 mg/kg
CC(C)(C)N(NC(=O)c1ccc(Cl)cc1)C(=O)c1ccccc1 | 2850 mg/kg
O=C1CSC(=S)N1 | 320 mg/kg
ClC1(Cl)C2(Cl)C3C4(Cl)C1(Cl)C1(Cl)C4(Cl)C(Cl)(Cl)C3(Cl)C21Cl (stereo not drawn) | 200 mg/kg
CN(Sc1cc(Cl)ccc1Cl)C(=O)Oc1cccc2c1OC(C)(C)C2 | 25 mg/kg
COC(=O)C(C)N(C(=O)c1ccco1)c1c(C)cccc1C (stereo not drawn) | 940 mg/kg
NC(=O)ON=C1CSCCS1 | 52 mg/kg
c1ccc(-n2cnnc2)cc1 | 134 mg/kg
O=CCC=O | 632 mg/kg
CCOP(=S)(OCC)Oc1cc(C)c(SC)c(C)c1 | 375 mg/kg
COc1ccc(CC(=S)N(C)C)cc1 | 22 mg/kg
CCNC(=S)NCC | 316 mg/kg
COC(=O)C(C(C)=O)C(C)=O | 1700 mg/kg
CN1CCN(CC/C=C2/c3ccccc3Sc3ccc(S(=O)(=O)N(C)C)cc32)CC1 | 410 mg/kg
COC(CN1CCN(CC(O)C(OC)c2ccccc2)CC1)c1ccccc1 (stereo not drawn) | 435 mg/kg
CCC(CC)C(=O)OCC(Cl)(Cl)Cl | 900 mg/kg
CC1(C)S[C@@H]2[C@H](NC(=O)COc3ccc(Cl)c(Cl)c3)C(=O)N2[C@H]1C(=O)O | 2500 mg/kg
C=CCn1c(C)c(N(C)C)c(=O)n(-c2ccccc2)c1=O | 2400 mg/kg
CCN1CC(CC(N)=O)CC2c3cccc4[nH]cc(c34)CC21 (stereo not drawn) | 38.5 mg/kg
COCC(=O)N(c1c(C)cccc1C)N1CCOC1=O | 1860 mg/kg
COc1ccc2c(c1)CCC(N(CCCCOC(=O)c1ccc(OC)c(OC)c1)C(C)C)C2 (stereo not drawn) | 1540 mg/kg

Structure (SMILES) | LD50
O=C(Cc1cccs1)N[C@@H]1C(=O)N2C(C(=O)[O-])=C(C[n+]3ccccc3)CS[C@H]12 | 2500 mg/kg
O=[N+]([O-])c1ccccc1O | 334 mg/kg
CCCCCCNC(=O)n1cc(F)c(=O)[nH]c1=O | 268 mg/kg
CCCOC(=O)CC | 10300 mg/kg
COP(=S)(OC)Oc1ccc(Cl)c([N+](=O)[O-])c1 | 500 mg/kg
CCC(C)C(CN(C)C)c1ccc(OC)c(Cl)c1 (stereo not drawn) | 454 mg/kg
CCOC(=O)/C=C1/SC(N2CCCCC2)C(=O)N1C (stereo not drawn) | 10200 mg/kg
O=NN1CCCOC1 | 600 mg/kg
C[N@+]12CCCC[C@@H]1CCC(=C(c1cccs1)c1cccs1)C2 | 1180 mg/kg
C=C(Cl)C#N | 25 mg/kg
CC(C)CCCCCOP(OCCCCCC(C)C)OCCCCCC(C)C | 9200 mg/kg
Cc1cccc(NC(N)=O)c1 | 1330 mg/kg
CC(=O)CCc1ccc(-c2ccccc2)cc1 | 1030 mg/kg
CCCC1(c2cccc(O)c2)CCN(C)C1 (stereo not drawn) | 231 mg/kg
CCOP(=O)(OCC)Oc1nc(Cl)c(Cl)cc1Cl | 135 mg/kg
OCC(Br)CBr (stereo not drawn) | 681 mg/kg
O=C(NN=C1SCCS1)c1ccccc1 | 72.8 mg/kg
O=C(O)Cc1c(Cl)ccc(Cl)c1Cl | 1780 mg/kg
CCCCOCCOCCOCCOCCOCCCC | 6500 mg/kg
CCN(CCNC(=O)SCC(C)C)C(=O)SCC(C)C | 2710 mg/kg
CCC(C)=CCCC(C)=CC#N | 2600 mg/kg
CC(C)N(CCC(C#N)(c1ccccc1)c1ccccn1)C(C)C (stereo not drawn) | 596 mg/kg
COP(=O)(OC)SCN1C(=O)c2ccccc2C1=O | 50 mg/kg
CCCCC1C(=O)N(c2ccccc2)N(c2ccc(O)cc2)C1=O (stereo not drawn) | 329 mg/kg
CC1NC(=O)c2cc(N)ccc2O1 (stereo not drawn) | 1420 mg/kg

Structure (SMILES) | LD50
N=C(N)NCC1CCC(C(=O)Oc2ccccc2C(=O)OCc2ccccc2)CC1 (stereo not drawn) | 8010 mg/kg
Cc1ccc(S(=O)(=O)Oc2cc(S(=O)(=O)O)cc3cc(S(=O)(=O)O)cc(N)c23)cc1 | 11500 mg/kg
C[N+](C)(C)CC[N+]1(C)Cc2c(Cl)c(Cl)c(Cl)c(Cl)c2C1 | 300 mg/kg
COCCOc1c(OC)cc(Cc2cnc(N)nc2N)cc1OC | 1170 mg/kg
O=C(NP(=O)(N1CC1)N1CC1)c1cc(I)ccc1I | 500 mg/kg
COc1ccc2c(c1)OC(C)(C)[C@H](c1ccccc1)[C@H]2c1ccc(OCCN2CCCC2)cc1 (racemic) | 800 mg/kg
O=NN(c1cccc(C(F)(F)F)c1)c1ccccc1C(=O)O | 900 mg/kg
Cc1ccc(OP(=O)(Oc2ccc(C)cc2)Oc2ccc(C)cc2)cc1 | 12800 mg/kg
C=CCOCCO | 3050 mg/kg
Cn1c(=O)c2c(ncn2CC(O)CN2CCN(CCCSc3ccccc3)CC2)n(C)c1=O (stereo not drawn) | 2100 mg/kg
CS/C(C)=N/OC(=O)N(C)SN(C)C(=O)O/N=C(\C)SC | 66 mg/kg
O=C(O)c1cc(-c2ccc(F)cc2F)ccc1O | 392 mg/kg
C=COC(=O)CCC | 8530 mg/kg
CCOP(=O)(OCC)SCCS(=O)(=O)CC | 1.9 mg/kg
Cc1c[nH]cn1 | 751 mg/kg
CCCCCCOC(=O)CC#N | 6440 mg/kg
Cc1cn([C@H]2C=C[C@@H](CO)O2)c(=O)[nH]c1=O | 4000 mg/kg
O=C1C(=NNc2ccccc2)C(S(=O)(=O)O)=Cc2cc(S(=O)(=O)O)cc(Nc3nc(Cl)nc(Cl)n3)c21 | 7460 mg/kg
OCCC1CCN(CCC=C2c3ccc(F)cc3Sc3ccc(C(F)(F)F)cc32)CC1 | 1.5 mg/kg
Cn1cc(OCC(O)CNC(C)(C)C)c2ccccc2c1=O (stereo not drawn) | 145 mg/kg
O=C1NN=C(c2ccccc2)CO1 | 441 mg/kg
COc1cc(NS(=O)(=O)c2ccc(N)cc2)ncn1 | 5620 mg/kg
c1ccc(-c2cccc(-c3ccccc3)c2)cc1 | 2400 mg/kg
CCOP(=O)(OCC)Oc1cc(C)oc(=O)c1 | 3.34 mg/kg
COP(=O)(OC)Oc1nc(Cl)c(Cl)cc1Cl | 869 mg/kg

Structure (SMILES) | LD50
Nc1ccc(Cc2ccc(N)cc2)cc1 | 517 mg/kg
Cl/C(=N/Nc1c(Cl)cc(Cl)cc1Cl)c1ccccc1 | 718 mg/kg
Fc1c(Cl)ccc2[nH]c(C(F)(F)F)nc12 | 5.72 mg/kg
CC(=O)Nc1cccc2c3c([nH]c12)CCCC3 | 3860 mg/kg
Nc1ccc(C(F)(F)F)cc1NC(=O)c1cccnc1 | 850 mg/kg
C#CCON=CC1=CCCNC1 | 80 mg/kg
O=NN(CC(F)(F)F)CC(F)(F)F | 300 mg/kg
N#CCCN(CCO)c1ccccc1 | 3210 mg/kg
CCO[Si](C)(C)CCl | 1550 mg/kg
CCCCC(C)=O | 2590 mg/kg
O=C(Cl)C(c1ccccc1)c1ccccc1 | 6330 mg/kg
OC(c1ccccc1)(c1ccccc1)C1CCCCN1 (stereo not drawn) | 180 mg/kg
CC(C)(C)c1cc(O)ccc1O | 700 mg/kg
COc1ccc(CCC2=NCCc3cc(OC)c(OC)cc32)cc1OC | 900 mg/kg
CNC(=O)N(C)N=O | 280 mg/kg
CN(C)C(=S)c1ccc2c(c1)OCO2 | 79 mg/kg
CCCCCN(N=O)C(N)=O | 560 mg/kg
CC(C)CCP(=O)(CCC(C)C)CCC(C)C | 2240 mg/kg
CCCC[P+](CCCC)(CCCC)Cc1ccc(Cl)s1 | 455 mg/kg
CC1CC=NN1C(=N)N=C(N)N (stereo not drawn) | 4350 mg/kg
Oc1ccc(-c2ccccc2)cc1CN1CCOCC1 | 25 mg/kg
N#CC(Cl)CCl (stereo not drawn) | 22 mg/kg
O=C1CCCC1 | 2690 mg/kg
COP(=S)(OC)SSP(=S)(OC)OC | 10000 mg/kg
Oc1cc2nc(C(F)(F)F)[nH]c2cc1Cl | 55.5 mg/kg

Structure (SMILES) | LD50
Fc1c(Cl)c(Cl)c2nc(C(F)(F)F)[nH]c2c1Cl | 2.39 mg/kg
CC(C)C(OCCO)C(C)C | 1070 mg/kg
CNS(=O)(=O)CCNC(=O)N(CCCl)N=O | 40 mg/kg
CN1CCC(=C2c3ccccc3C(O)c3ccccc32)CC1 (stereo not drawn) | 135 mg/kg
CC(=O)Oc1ccccc1C(=O)OC(=O)c1ccccc1OC(C)=O | 2200 mg/kg
C[N+]1(CCCl)CCCO1 (stereo not drawn) | 3 mg/kg
c1ccc([Si]23OCCN(CCO2)CCO3)cc1 | 1.48 mg/kg
Nc1nc2cccc(Cl)c2o1 | 410 mg/kg
N=C(N)NCCC[C@H](N)C(=O)O | 12000 mg/kg
N#CC(Cl)(Cl)CCl | 200 mg/kg and 250 mg/kg
O=C(O)Cn1c(=O)sc2cccc(Cl)c21 | 3000 mg/kg
S=C1N=CC=NC(=S)SSSS1 | 8530 mg/kg
Cc1cc2[nH]c(C(F)(F)F)nc2c([N+](=O)[O-])c1C | 67 mg/kg
CCCCC(CC)Cc1ccccc1O (stereo not drawn) | 2460 mg/kg
c1ccc(COCc2ccccc2)cc1 | 2500 mg/kg
COP(=S)(OC)Oc1cc(Cl)c([N+](=O)[O-])c(Cl)c1 | 750 mg/kg
O=C1CN=C(c2ccccn2)c2cc(Br)ccc2N1 | 1950 mg/kg
C/C=N/O | 740 mg/kg
CCC(C)c1ccc(OC(=O)NC)cc1 (stereo not drawn) | 44 mg/kg
CCOP(=S)(OCC)Oc1ccc([N+](=O)[O-])c(Cl)c1 | 50 mg/kg
COC(=S)SSC(Cl)(Cl)Cl | 1540 mg/kg
Oc1ccc(Cc2ccc(O)cc2)cc1 | 4950 mg/kg
CSC#N | 60 mg/kg
